# Values joined by “and” are separate entries in the source; they are usually repeats but may differ in a detail not shown here. Identical values can stand only once. Numbers after ± are expanded uncertainties.
# Settings: 238.15 K; 101.33 kPa; Liquid; Alternating current cell with electrodes
row,Compound,electrical conductivity [S/m]
1,CCCC[N+]1(C)CCCC1.N#CN=C=[N-] [1-butyl-1-methylpyrrolidinium dicyanamide],0.0337 ± 0.0005

# Same assay, conditions: 248.15 K; 101.33 kPa; Liquid; Alternating current cell with electrodes
row,Compound,electrical conductivity
1,CCCC[N+]1(C)CCCC1.N#CN=C=[N-] [1-butyl-1-methylpyrrolidinium dicyanamide],0.081 S/m and 0.102 S/m

# Same assay, conditions: 258.15 K; 101.33 kPa; Liquid; Alternating current cell with electrodes
row,Compound,electrical conductivity
1,CCCC[N+]1(C)CCCC1.N#CN=C=[N-] [1-butyl-1-methylpyrrolidinium dicyanamide],0.166 S/m and 0.2 S/m
2,CC[S+](C)CC.O=S(=O)([N-]S(=O)(=O)C(F)(F)F)C(F)(F)F [diethylmethylsulfonium bis[(trifluoromethyl)sulfonyl]imide],0.0975 ± 0.0015 S/m
3,CC[S+](CC)CC.O=S(=O)([N-]S(=O)(=O)C(F)(F)F)C(F)(F)F [triethylsulfonium bis((trifluoromethyl)sulfonyl)imide],0.0992 ± 0.0015 S/m

# Same assay, conditions: 268.15 K; 101.33 kPa; Liquid; Alternating current cell with electrodes
row,Compound,electrical conductivity
1,CCCC[N+]1(C)CCCC1.N#CN=C=[N-] [1-butyl-1-methylpyrrolidinium dicyanamide],0.299 S/m and 0.352 S/m
2,CC[S+](C)CC.O=S(=O)([N-]S(=O)(=O)C(F)(F)F)C(F)(F)F [diethylmethylsulfonium bis[(trifluoromethyl)sulfonyl]imide],0.182 ± 0.0027 S/m
3,CC[S+](CC)CC.O=S(=O)([N-]S(=O)(=O)C(F)(F)F)C(F)(F)F [triethylsulfonium bis((trifluoromethyl)sulfonyl)imide],0.186 ± 0.0028 S/m

# Same assay, conditions: 278.15 K; 101.33 kPa; Liquid; Alternating current cell with electrodes
row,Compound,electrical conductivity
1,CCCC[N+]1(C)CCCC1.N#CN=C=[N-] [1-butyl-1-methylpyrrolidinium dicyanamide],0.49 S/m and 0.566 S/m
2,CCCC[n+]1ccccc1.O=S(=O)([N-]S(=O)(=O)C(F)(F)F)C(F)(F)F [1-butylpyridinium bis[(trifluoromethyl)sulfonyl]imide],0.119 ± 0.0018 S/m
3,CC[S+](C)CC.O=S(=O)([N-]S(=O)(=O)C(F)(F)F)C(F)(F)F [diethylmethylsulfonium bis[(trifluoromethyl)sulfonyl]imide],0.305 ± 0.0046 S/m
4,CC[S+](CC)CC.O=S(=O)([N-]S(=O)(=O)C(F)(F)F)C(F)(F)F [triethylsulfonium bis((trifluoromethyl)sulfonyl)imide],0.314 ± 0.0047 S/m

# Same assay, conditions: 278.15 K; 101.33 kPa; Liquid; Falling or rolling sphere viscometry
row,Compound,viscosity
1,CCCC[N+]1(C)CCCC1.N#CN=C=[N-] [1-butyl-1-methylpyrrolidinium dicyanamide],95.5 ± 2.6 mPa·s and 80.15 ± 1.9 mPa·s
2,CCCC[n+]1ccccc1.O=S(=O)([N-]S(=O)(=O)C(F)(F)F)C(F)(F)F [1-butylpyridinium bis[(trifluoromethyl)sulfonyl]imide],182.1 ± 8 mPa·s
3,CC[S+](C)CC.O=S(=O)([N-]S(=O)(=O)C(F)(F)F)C(F)(F)F [diethylmethylsulfonium bis[(trifluoromethyl)sulfonyl]imide],98.6 ± 2.6 mPa·s
4,CC[S+](CC)CC.O=S(=O)([N-]S(=O)(=O)C(F)(F)F)C(F)(F)F [triethylsulfonium bis((trifluoromethyl)sulfonyl)imide],80.5 ± 1.8 mPa·s

# Same assay, conditions: 278.15 K; 101.33 kPa; Liquid; Vibrating tube method
row,Compound,mass density
1,CCCC[N+]1(C)CCCC1.N#CN=C=[N-] [1-butyl-1-methylpyrrolidinium dicyanamide],1029 ± 2.2 kg/m3 and 1024.78 ± 2.2 kg/m3
2,CCCC[n+]1ccccc1.O=S(=O)([N-]S(=O)(=O)C(F)(F)F)C(F)(F)F [1-butylpyridinium bis[(trifluoromethyl)sulfonyl]imide],1467.88 ± 3 kg/m3
3,CC[S+](C)CC.O=S(=O)([N-]S(=O)(=O)C(F)(F)F)C(F)(F)F [diethylmethylsulfonium bis[(trifluoromethyl)sulfonyl]imide],1520.53 ± 3.1 kg/m3
4,CC[S+](CC)CC.O=S(=O)([N-]S(=O)(=O)C(F)(F)F)C(F)(F)F [triethylsulfonium bis((trifluoromethyl)sulfonyl)imide],1479.69 ± 3 kg/m3

# Same assay, conditions: 288.15 K; 101.33 kPa; Liquid; Alternating current cell with electrodes
row,Compound,electrical conductivity
1,CCCC[N+]1(C)CCCC1.N#CN=C=[N-] [1-butyl-1-methylpyrrolidinium dicyanamide],0.746 S/m and 0.844 S/m
2,CCCC[n+]1ccccc1.O=S(=O)([N-]S(=O)(=O)C(F)(F)F)C(F)(F)F [1-butylpyridinium bis[(trifluoromethyl)sulfonyl]imide],0.206 ± 0.0031 S/m
3,CC[S+](C)CC.O=S(=O)([N-]S(=O)(=O)C(F)(F)F)C(F)(F)F [diethylmethylsulfonium bis[(trifluoromethyl)sulfonyl]imide],0.473 ± 0.0071 S/m
4,CC[S+](CC)CC.O=S(=O)([N-]S(=O)(=O)C(F)(F)F)C(F)(F)F [triethylsulfonium bis((trifluoromethyl)sulfonyl)imide],0.487 ± 0.0073 S/m

# Same assay, conditions: 288.15 K; 101.33 kPa; Liquid; Falling or rolling sphere viscometry
row,Compound,viscosity
1,CCCC[N+]1(C)CCCC1.N#CN=C=[N-] [1-butyl-1-methylpyrrolidinium dicyanamide],61.23 ± 1.2 mPa·s and 51.72 ± 0.96 mPa·s
2,CCCC[n+]1ccccc1.O=S(=O)([N-]S(=O)(=O)C(F)(F)F)C(F)(F)F [1-butylpyridinium bis[(trifluoromethyl)sulfonyl]imide],100.9 ± 2.8 mPa·s
3,CC[S+](C)CC.O=S(=O)([N-]S(=O)(=O)C(F)(F)F)C(F)(F)F [diethylmethylsulfonium bis[(trifluoromethyl)sulfonyl]imide],61.05 ± 1.1 mPa·s
4,CCCCCCCC[N+](C)(CCCCCCCC)CCCCCCCC.O=C([O-])C(F)(F)F [methyltrioctylammonium trifluoroacetate],3629 ± 520 mPa·s
5,CC[S+](CC)CC.O=S(=O)([N-]S(=O)(=O)C(F)(F)F)C(F)(F)F [triethylsulfonium bis((trifluoromethyl)sulfonyl)imide],49.88 ± 0.9 mPa·s

# Same assay, conditions: 288.15 K; 101.33 kPa; Liquid; Vibrating tube method
row,Compound,mass density
1,CCCC[N+]1(C)CCCC1.N#CN=C=[N-] [1-butyl-1-methylpyrrolidinium dicyanamide],1023.24 ± 2.2 kg/m3 and 1019.06 ± 2.2 kg/m3
2,CCCC[n+]1ccccc1.O=S(=O)([N-]S(=O)(=O)C(F)(F)F)C(F)(F)F [1-butylpyridinium bis[(trifluoromethyl)sulfonyl]imide],1458.26 ± 3 kg/m3
3,CC[S+](C)CC.O=S(=O)([N-]S(=O)(=O)C(F)(F)F)C(F)(F)F [diethylmethylsulfonium bis[(trifluoromethyl)sulfonyl]imide],1510.56 ± 3.1 kg/m3
4,CC[S+](CC)CC.O=S(=O)([N-]S(=O)(=O)C(F)(F)F)C(F)(F)F [triethylsulfonium bis((trifluoromethyl)sulfonyl)imide],1469.86 ± 3 kg/m3

# Same assay, conditions: 298.15 K; 101.33 kPa; Liquid; Alternating current cell with electrodes
row,Compound,electrical conductivity
1,CCCC[N+]1(C)CCCC1.N#CN=C=[N-] [1-butyl-1-methylpyrrolidinium dicyanamide],1.07 S/m and 1.19 S/m
2,CCCC[n+]1ccccc1.O=S(=O)([N-]S(=O)(=O)C(F)(F)F)C(F)(F)F [1-butylpyridinium bis[(trifluoromethyl)sulfonyl]imide],0.326 ± 0.0049 S/m
3,CC[S+](C)CC.O=S(=O)([N-]S(=O)(=O)C(F)(F)F)C(F)(F)F [diethylmethylsulfonium bis[(trifluoromethyl)sulfonyl]imide],0.688 ± 0.01 S/m
4,CCCCCCCC[N+](C)(CCCCCCCC)CCCCCCCC.O=C([O-])C(F)(F)F [methyltrioctylammonium trifluoroacetate],0.00155 ± 2.4e-05 S/m
5,CC[S+](CC)CC.O=S(=O)([N-]S(=O)(=O)C(F)(F)F)C(F)(F)F [triethylsulfonium bis((trifluoromethyl)sulfonyl)imide],0.708 ± 0.011 S/m

# Same assay, conditions: 298.15 K; 101.33 kPa; Liquid; Falling or rolling sphere viscometry
row,Compound,viscosity
1,CCCC[N+]1(C)CCCC1.N#CN=C=[N-] [1-butyl-1-methylpyrrolidinium dicyanamide],41.78 ± 0.82 mPa·s and 35.85 ± 0.71 mPa·s
2,CCCC[n+]1ccccc1.O=S(=O)([N-]S(=O)(=O)C(F)(F)F)C(F)(F)F [1-butylpyridinium bis[(trifluoromethyl)sulfonyl]imide],61.39 ± 1.1 mPa·s
3,CC[S+](C)CC.O=S(=O)([N-]S(=O)(=O)C(F)(F)F)C(F)(F)F [diethylmethylsulfonium bis[(trifluoromethyl)sulfonyl]imide],40.71 ± 0.72 mPa·s
4,CCCCCCCC[N+](C)(CCCCCCCC)CCCCCCCC.O=C([O-])C(F)(F)F [methyltrioctylammonium trifluoroacetate],1551 ± 180 mPa·s
5,CC[S+](CC)CC.O=S(=O)([N-]S(=O)(=O)C(F)(F)F)C(F)(F)F [triethylsulfonium bis((trifluoromethyl)sulfonyl)imide],33.36 ± 0.59 mPa·s

# Same assay, conditions: 298.15 K; 101.33 kPa; Liquid; Vibrating tube method
row,Compound,mass density
1,CCCC[N+]1(C)CCCC1.N#CN=C=[N-] [1-butyl-1-methylpyrrolidinium dicyanamide],1017.56 ± 2.2 kg/m3 and 1013.4 ± 2.2 kg/m3
2,CCCC[n+]1ccccc1.O=S(=O)([N-]S(=O)(=O)C(F)(F)F)C(F)(F)F [1-butylpyridinium bis[(trifluoromethyl)sulfonyl]imide],1448.74 ± 3 kg/m3
3,CC[S+](C)CC.O=S(=O)([N-]S(=O)(=O)C(F)(F)F)C(F)(F)F [diethylmethylsulfonium bis[(trifluoromethyl)sulfonyl]imide],1500.71 ± 3.1 kg/m3
4,CCCCCCCC[N+](C)(CCCCCCCC)CCCCCCCC.O=C([O-])C(F)(F)F [methyltrioctylammonium trifluoroacetate],962.478 ± 2.1 kg/m3
5,CC[S+](CC)CC.O=S(=O)([N-]S(=O)(=O)C(F)(F)F)C(F)(F)F [triethylsulfonium bis((trifluoromethyl)sulfonyl)imide],1460.14 ± 3 kg/m3

# Same assay, conditions: 303.15 K; 101.33 kPa; Liquid; Vibrating tube method
row,Compound,mass density [kg/m3]
1,CCCCCCCC[N+](C)(CCCCCCCC)CCCCCCCC.O=C([O-])C(F)(F)F [methyltrioctylammonium trifluoroacetate],959.262 ± 2

# Same assay, conditions: 308.15 K; 101.33 kPa; Liquid; Alternating current cell with electrodes
row,Compound,electrical conductivity
1,CCCC[N+]1(C)CCCC1.N#CN=C=[N-] [1-butyl-1-methylpyrrolidinium dicyanamide],1.46 S/m and 1.61 S/m
2,CCCC[n+]1ccccc1.O=S(=O)([N-]S(=O)(=O)C(F)(F)F)C(F)(F)F [1-butylpyridinium bis[(trifluoromethyl)sulfonyl]imide],0.483 ± 0.0073 S/m
3,CC[S+](C)CC.O=S(=O)([N-]S(=O)(=O)C(F)(F)F)C(F)(F)F [diethylmethylsulfonium bis[(trifluoromethyl)sulfonyl]imide],0.95 ± 0.014 S/m
4,CCCCCCCC[N+](C)(CCCCCCCC)CCCCCCCC.O=C([O-])C(F)(F)F [methyltrioctylammonium trifluoroacetate],0.00329 ± 5e-05 S/m
5,CC[S+](CC)CC.O=S(=O)([N-]S(=O)(=O)C(F)(F)F)C(F)(F)F [triethylsulfonium bis((trifluoromethyl)sulfonyl)imide],0.975 ± 0.015 S/m

# Same assay, conditions: 308.15 K; 101.33 kPa; Liquid; Falling or rolling sphere viscometry
row,Compound,viscosity
1,CCCC[N+]1(C)CCCC1.N#CN=C=[N-] [1-butyl-1-methylpyrrolidinium dicyanamide],29.99 ± 0.59 mPa·s and 25.93 ± 0.51 mPa·s
2,CCCC[n+]1ccccc1.O=S(=O)([N-]S(=O)(=O)C(F)(F)F)C(F)(F)F [1-butylpyridinium bis[(trifluoromethyl)sulfonyl]imide],40.14 ± 0.72 mPa·s
3,CC[S+](C)CC.O=S(=O)([N-]S(=O)(=O)C(F)(F)F)C(F)(F)F [diethylmethylsulfonium bis[(trifluoromethyl)sulfonyl]imide],28.55 ± 0.5 mPa·s
4,CCCCCCCC[N+](C)(CCCCCCCC)CCCCCCCC.O=C([O-])C(F)(F)F [methyltrioctylammonium trifluoroacetate],735.2 ± 67 mPa·s
5,CC[S+](CC)CC.O=S(=O)([N-]S(=O)(=O)C(F)(F)F)C(F)(F)F [triethylsulfonium bis((trifluoromethyl)sulfonyl)imide],23.5 ± 0.41 mPa·s

# Same assay, conditions: 308.15 K; 101.33 kPa; Liquid; Vibrating tube method
row,Compound,mass density
1,CCCC[N+]1(C)CCCC1.N#CN=C=[N-] [1-butyl-1-methylpyrrolidinium dicyanamide],1011.95 ± 2.2 kg/m3 and 1007.81 ± 2.2 kg/m3
2,CCCC[n+]1ccccc1.O=S(=O)([N-]S(=O)(=O)C(F)(F)F)C(F)(F)F [1-butylpyridinium bis[(trifluoromethyl)sulfonyl]imide],1439.32 ± 2.9 kg/m3
